Experimental data from patent US8598202B2, “Aryl-hydroxyethylamino-pyrimidines and triazines as modulators of fatty acid amide hydrolase” (Janssen Pharmaceutica NV, priority 2008, dated 2013).
Where a name gives a salt, the structure may show the parent alone.

Legend:
Rat FAAH-1 = molecular target: T1, Rat FAAH-1 (Rattus norvegicus, UniProt P97612); test: Assay Method 2: rat FAAH-1 assay, 3H-anandamide hydrolysis in homogenate of SK-N-MC cells transfected with rat FAAH
T1 sequence (P97612 1-579): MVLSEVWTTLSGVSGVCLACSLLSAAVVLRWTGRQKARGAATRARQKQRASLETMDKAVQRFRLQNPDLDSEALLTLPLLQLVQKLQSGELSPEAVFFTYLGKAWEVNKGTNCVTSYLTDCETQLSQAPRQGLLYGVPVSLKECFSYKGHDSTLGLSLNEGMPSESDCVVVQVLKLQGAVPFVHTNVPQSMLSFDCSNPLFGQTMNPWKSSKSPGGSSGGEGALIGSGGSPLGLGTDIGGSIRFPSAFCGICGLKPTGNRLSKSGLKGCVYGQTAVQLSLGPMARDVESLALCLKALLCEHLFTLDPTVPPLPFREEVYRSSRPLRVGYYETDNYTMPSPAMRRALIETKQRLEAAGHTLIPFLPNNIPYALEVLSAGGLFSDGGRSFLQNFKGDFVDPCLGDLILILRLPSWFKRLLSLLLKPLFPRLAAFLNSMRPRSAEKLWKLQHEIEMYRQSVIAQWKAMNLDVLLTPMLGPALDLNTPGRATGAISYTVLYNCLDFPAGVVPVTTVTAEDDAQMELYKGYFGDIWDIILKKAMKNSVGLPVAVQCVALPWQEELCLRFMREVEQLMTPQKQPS

FAAH = molecular target: T2, FAAH (Homo sapiens, UniProt O00519); test: Assay Method 1: FAAH assay, 3H-anandamide hydrolysis in homogenate of T84 cells or SK-N-MC cells transfected with human FAAH
T2 sequence (O00519 1-579): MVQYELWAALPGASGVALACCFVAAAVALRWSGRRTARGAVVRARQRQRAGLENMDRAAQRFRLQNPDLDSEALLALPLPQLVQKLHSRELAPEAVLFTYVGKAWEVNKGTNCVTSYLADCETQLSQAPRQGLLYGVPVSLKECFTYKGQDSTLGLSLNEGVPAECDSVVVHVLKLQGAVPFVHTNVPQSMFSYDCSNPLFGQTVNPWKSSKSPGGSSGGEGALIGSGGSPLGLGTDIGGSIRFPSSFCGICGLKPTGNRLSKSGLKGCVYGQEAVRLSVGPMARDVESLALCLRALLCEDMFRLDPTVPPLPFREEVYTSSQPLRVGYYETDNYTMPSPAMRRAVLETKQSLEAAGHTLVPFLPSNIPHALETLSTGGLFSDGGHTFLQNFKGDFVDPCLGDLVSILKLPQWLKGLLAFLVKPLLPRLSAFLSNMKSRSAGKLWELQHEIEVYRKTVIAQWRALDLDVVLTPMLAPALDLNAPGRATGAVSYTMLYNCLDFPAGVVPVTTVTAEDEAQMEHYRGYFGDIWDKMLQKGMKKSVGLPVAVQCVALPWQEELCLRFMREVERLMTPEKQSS

Row | IC50 (Rat FAAH-1) [µM] | IC50 (FAAH) [µM] | SMILES
1 | 0.4 | 0.022 | OC(CNc1cc(-c2ccc(C(F)(F)F)c(Cl)c2)ncn1)c1cc(-c2ccc(Cl)c(Cl)c2)no1 (centres unmarked) [Example 213, 2-[6-(3-Chloro-4-trifluoromethyl-phenyl)-pyrimidin-4-ylamino]-1-[3-(3,4-dichloro-phenyl)-isoxazol-5-yl]-ethanol]
2 | 0.535 | 0.029 | O=C(c1ccccc1)c1ccc(-c2cc(NC[C@H](O)c3ccccc3)ncn2)cc1 [Example 57, [4-(6-{[(2R)-2-Hydroxy-2-phenylethyl]amino}pyrimidin-4-yl)phenyl](phenyl)methanone trifluoroacetic acid salt]
3 | 0.016 | 0.1 | OC(CNc1cc(-c2ccc(C(F)(F)F)c(Cl)c2)ncn1)c1cccc(C(F)(F)F)c1 (centres unmarked) [Example 135, 2-({6-[3-Chloro-4-(trifluoromethyl)phenyl]pyrimidin-4-yl}amino)-1-[3-(trifluoromethyl)phenyl]ethanol trifluoroacetic acid salt]
4 | 0.443 | 0.277 | O[C@@H](CNc1cc(-c2cc(F)c(F)c(F)c2)ncn1)c1ccccc1 [Example 54, (1R)-1-Phenyl-2-{[6-(3,4,5-trifluorophenyl)pyrimidin-4-yl]amino}ethanol trifluoroacetic acid salt]
5 | 0.324 | 0.021 | OC(CNc1cc(-c2ccc3ccccc3c2)ncn1)c1ccccc1 (centres unmarked) [Example 235, 2-[(6-Naphthalen-2-ylpyrimidin-4-yl)amino]-1-phenylethanol]
6 | 0.034 | 0.1 | OC(CNc1cc(-c2ccc(C(F)(F)F)c(Cl)c2)ncn1)c1ccc(C(F)(F)F)c(F)c1 (centres unmarked) [Example 197, 2-({6-[3-Chloro-4-(trifluoromethyl)phenyl]pyrimidin-4-yl}amino)-1-[3-fluoro-4-(trifluoromethyl)phenyl]ethanol]
7 | 4 | 0.7 | CC(=O)c1ccc(-c2cc(NCC(O)c3ccccc3)ncn2)s1 (centres unmarked) [Example 236, 1-{5-[6-(2-Hydroxy-2-phenyl-ethylamino)-pyrimidin-4-yl]-thiophen-2-yl}-ethanone]
8 | 0.005 | 0.002 | O[C@@H](CNc1cc(-c2ccc(OC(F)(F)F)c(F)c2)ncn1)c1ccc(F)cc1 [Example 174, (1R)-1-(4-Fluorophenyl)-2-({6-[3-fluoro-4-(trifluoromethoxy)phenyl]pyrimidin-4-yl}amino)ethanol trifluoroacetic acid salt]
9 | 0.126 | 0.014 | CN(C)S(=O)(=O)c1ccc(-c2cc(NC[C@H](O)c3ccccc3)ncn2)cc1 [Example 76, 4-(6-{[(2R)-2-Hydroxy-2-phenylethyl]amino}pyrimidin-4-yl)-N,N-dimethylbenzenesulfonamide]
10 | 0.205 | 0.14 | OC(CNc1cc(-c2ccc(OC(F)(F)F)cc2)ncn1)c1ccccc1Cl (centres unmarked) [Example 115, 1-(2-Chlorophenyl)-2-[(6-{4-[(trifluoromethyl)oxy]phenyl}pyrimidin-4-yl)amino]ethanol]
11 | 0.15 | 0.11 | OC(CNc1cc(-c2ccc(OC(F)(F)F)cc2)ncn1)c1ccc(C(F)(F)F)cc1 (centres unmarked) [Example 108, 2-[(6-{4-[(Trifluoromethyl)oxy]phenyl}pyrimidin-4-yl)amino]-1-[4-(trifluoromethyl)phenyl]ethanol]
12 | > 10 | 4 | O[C@@H](CNc1cc(-c2ccc(C(F)(F)F)cc2C(F)(F)F)ncn1)c1ccccc1 [Example 152, (1R)-2-({6-[2,4-Bis(trifluoromethyl)phenyl]pyrimidin-4-yl}amino)-1-phenylethanol trifluoroacetic acid salt]
13 | 0.492 | 0.11 | NS(=O)(=O)c1ccc(-c2cc(NC[C@H](O)c3ccccc3)ncn2)cc1 [Example 81, 4-(6-{[(2R)-2-Hydroxy-2-phenylethyl]amino}pyrimidin-4-yl)benzenesulfonamide]
14 | 0.007 | 0.019 | N#Cc1ccc(C(O)CNc2cc(-c3ccc(C(F)(F)F)c(Cl)c3)ncn2)cc1 (centres unmarked) [Example 191, 4-[2-({6-[3-Chloro-4-(trifluoromethyl)phenyl]pyrimidin-4-yl}amino)-1-hydroxyethyl]benzonitrile]
15 | 0.675 | 0.004 | Cn1ccc2cc(-c3cc(NC[C@H](O)c4ccccc4)ncn3)ccc21 [Example 90, (1R)-2-{[6-(1-Methyl-1H-indol-5-yl)pyrimidin-4-yl]amino}-1-phenylethanol trifluoroacetic acid salt]
16 | 0.009 | 0.002 | O[C@@H](CNc1cc(-c2cc(F)c(OC(F)F)c(F)c2)ncn1)c1ccccc1 [Example 49, (1R)-2-({6-[4-(Difluoromethoxy)-3,5-difluorophenyl]pyrimidin-4-yl}amino)-1-phenylethanol trifluoroacetic acid salt]
17 | 0.02 | 0.06 | CSc1ccc(C(O)CNc2cc(-c3ccc(C(F)(F)F)c(Cl)c3)ncn2)cc1 (centres unmarked) [Example 167, 2-({6-[3-Chloro-4-(trifluoromethyl)phenyl]pyrimidin-4-yl}amino)-1-[4-(methylsulfanyl)phenyl]ethanol]
18 | 0.089 | 0.036 | O[C@@H](CNc1cc(-c2ccc3c(c2)OC(F)(F)O3)ncn1)c1ccccc1 [Example 183, (1R)-2-{[6-(2,2-Difluoro-1,3-benzodioxol-5-yl)pyrimidin-4-yl]amino}-1-phenylethanol]
19 | 0.015 | 0.12 | OC(CNc1cc(-c2ccc(C(F)(F)F)c(Cl)c2)ncn1)c1cccc(OC(F)(F)F)c1 (centres unmarked) [Example 130, 2-({6-[3-Chloro-4-(trifluoromethyl)phenyl]pyrimidin-4-yl}amino)-1-[3-(trifluoromethoxy)phenyl]ethanol trifluoroacetic acid salt]
20 | 0.06 | 0.018 | Cc1ccc(-c2cc(NC[C@H](O)c3ccccc3)ncn2)cc1Cl [Example 39, (1R)-2-{[6-(3-Chloro-4-methylphenyl)pyrimidin-4-yl]amino}-1-phenylethanol trifluoroacetic acid salt]
21 | 0.375 | 0.034 | CCOc1ccc(-c2cc(NCC(O)c3ccccc3)ncn2)cc1 (centres unmarked) [Example 11, 2-({6-[4-(Ethyloxy)phenyl]pyrimidin-4-yl}amino)-1-phenylethanol]
22 | 0.168 | 0.074 | OC(CNc1cc(-c2ccc(Cl)c(Cl)c2)ncn1)c1ccccc1 (centres unmarked) [Example 8, 2-{[6-(3,4-Dichlorophenyl)pyrimidin-4-yl]amino}-1-phenylethanol]
23 | 0.076 | 0.014 | COc1ccc(-c2cc(NC[C@H](O)c3ccccc3)ncn2)cc1F [Example 71, (1R)-2-{[6-(3-Fluoro-4-methoxyphenyl)pyrimidin-4-yl]amino}-1-pPhenylethanol]
24 | 0.446 | 0.088 | O[C@@H](CNc1cc(-c2cc(F)cc(Cl)c2)ncn1)c1ccccc1 [Example 43, (1R)-2-{[6-(3-Chloro-5-fluorophenyl)pyrimidin-4-yl]amino}-1-phenylethanol trifluoroacetic acid salt]
25 | 0.111 | 0.067 | OC(CNc1cc(-c2ccc(C(F)(F)F)c(Cl)c2)ncn1)c1cc(-c2ccccc2)no1 (centres unmarked) [Example 207, 2-({6-[3-Chloro-4-(trifluoromethyl)phenyl]pyrimidin-4-yl}amino)-1-(3-phenylisoxazol-5-yl)ethanol]
26 | 0.1 | 0.225 | COc1ccc(C(O)CNc2cc(-c3ccc(C(F)(F)F)c(Cl)c3)ncn2)cc1OC (centres unmarked) [Example 202, 2-({6-[3-Chloro-4-(trifluoromethyl)phenyl]pyrimidin-4-yl}amino)-1-(3,4-dimethoxyphenyl)ethanol]
27 | 0.34 | 0.084 | O[C@@H](CNc1cc(-c2ccc(Cl)c(Cl)c2)nc(C2CC2)n1)c1ccccc1 [Example 136, (1R)-2-{[2-Cyclopropyl-6-(3,4-dichlorophenyl)pyrimidin-4-yl]amino}-1-phenylethanol]
28 | 0.004 | 0.026 | O[C@@H](CNc1cc(-c2ccc(C(F)(F)F)c(Cl)c2)ncn1)c1ccc(Cl)c(F)c1 [Example 146, (1R)-1-(4-Chloro-3-fluoro-phenyl)-2-[6-(3-chloro-4-trifluoromethyl-Phenyl)-pyrimidin-4-ylamino]-ethanol]
